Measured values reported in the NIST ThermoML archive (doi:10.1016/j.jct.2005.07.003).
Where “and” joins values, the source holds several entries; their conditions need not be identical. Equal values may be shown once. Numbers after ± are expanded uncertainties.

Assay: activity coefficient (dimensionless); of the first substance listed, at infinite dilution; xn = mol fraction of the nth substance listed
Conditions: 101 kPa, Liquid, Chromatography, x1 = 0

Row | SMILES | activity coefficient (288.15 K) | activity coefficient (298.15 K) | activity coefficient (313.15 K)
1 | C=CCCCCC [1-heptene] + CCCCCCCC[n+]1ccn(C)c1.COCCOCCOS(=O)(=O)[O-] | 10.3 and 10.8 | 10.5 and 10.1 | 8.51 and 9.33
2 | C#CCCCCC [1-heptyne] + CCCCCCCC[n+]1ccn(C)c1.COCCOCCOS(=O)(=O)[O-] | 5.69 and 5.38 | 4.92 and 5.11 | 4.7 and 4.67
3 | c1ccccc1 [benzene] + CCCCCCCC[n+]1ccn(C)c1.COCCOCCOS(=O)(=O)[O-] | 1.33 ± 0.14 | 1.33 and 1.46 | 1.37 and 1.35
4 | C1CCCCCC1 [cycloheptane] + CCCCCCCC[n+]1ccn(C)c1.COCCOCCOS(=O)(=O)[O-] | 9.65 and 10.1 | 9.02 and 8.83 | 7.53 and 7.45
5 | C1CCCC1 [cyclopentane] + CCCCCCCC[n+]1ccn(C)c1.COCCOCCOS(=O)(=O)[O-] | 6.4 and 6.14 | 5.1 and 5.86 | 5.24 and 5.16
6 | C=CCCCCCC [oct-1-ene] + CCCCCCCC[n+]1ccn(C)c1.COCCOCCOS(=O)(=O)[O-] | 13.7 and 14 | 13.1 and 13.2 | 12 and 11.4
7 | CCCCCCCC [octane] + CCCCCCCC[n+]1ccn(C)c1.COCCOCCOS(=O)(=O)[O-] | 22.6 and 22.2 | 21.1 and 19.7 | 16.4 ± 1.7
8 | CCCCC [pentane] + CCCCCCCC[n+]1ccn(C)c1.COCCOCCOS(=O)(=O)[O-] | 12.6 and 11.6 | 10.6 and 10.3 | 10 and 9.5

Continued, values first:

Row | activity coefficient (288.15 K) | activity coefficient (298.15 K) | activity coefficient (313.15 K) | SMILES
9 | 8.52 and 8.34 | 7.86 ± 0.83 | 6.83 and 6.79 | C1CCCCC1 [cyclohexane] + CCCCCCCC[n+]1ccn(C)c1.COCCOCCOS(=O)(=O)[O-]
10 | 11.2 and 10.3 | – | 8.74 and 8.65 | C1CCCCCCC1 [cyclooctane] + CCCCCCCC[n+]1ccn(C)c1.COCCOCCOS(=O)(=O)[O-]
11 | 17.9 and 17.4 | 16.4 and 16 | 13.5 and 13.3 | CCCCCCC [heptane] + CCCCCCCC[n+]1ccn(C)c1.COCCOCCOS(=O)(=O)[O-]
12 | 8.61 and 8.47 | 8.14 and 8.33 | 7.47 and 7.74 | C=CCCCC [hex-1-ene] + CCCCCCCC[n+]1ccn(C)c1.COCCOCCOS(=O)(=O)[O-]
13 | 14 ± 1.5 | 12.8 and 12.9 | 11.9 and 11.8 | CCCCCC [hexane] + CCCCCCCC[n+]1ccn(C)c1.COCCOCCOS(=O)(=O)[O-]
14 | 0.37 and 0.44 | 0.38 ± 0.05 | 0.36 and 0.38 | CO [methanol] + CCCCCCCC[n+]1ccn(C)c1.COCCOCCOS(=O)(=O)[O-]
